Experimental data from patent US20260265724A1, “BIOSENSOR COMPRISING A MODIFIED BETA-LACTAMASE AND USES THEREOF” (priority 2022, published 2026).

How the values were obtained:
[1] = target: T1, F70Cf (fluorescein-labelled NDM-1 mutant) (Klebsiella pneumoniae, UniProt C7C422, F70C); test: Specific activity against antibiotics by ultraviolet-visible spectroscopy (antibiotic hydrolysis); assay type: biochemical; conditions: enzyme 0.001 mg/ml, 100 μM antibiotic, 50 μM ZnCl2, 20 mM Tris-HCl buffer, pH 7.0
T1 construct: made in house; host or cells: E. coli BL21 (DE3), pET-3k vector; labelled with F5M after purification
Protocol: (§1) Specific activity (U/mg) of wild-type NDM-1, F70C and F70Cf against different antibiotics were measured by ultraviolet-visible spectroscopy. Enzymes (final concentration: 0.001 mg/ml) were incubated with 100 μM of different antibiotics: cefotaxime, ceftazidime, penicillin G, ampicillin and meropenem, in 500 μL buffer (50 μM ZnCl2, 20 mM Tris-HCl buffer, pH 7.0). Antibiotic hydrolysis was monitored at 264 nm (cefotaxime), 260 nm (ceftazidime), 240 nm (penicillin G), 235 nm (ampicillin) and 297 nm (meropenem). The molar extinction coefficients were used as follows: cefotaxime=−7250 M^−1 cm^−1, ceftazidime=−8660 M^−1 cm^−1, penicillin G=−560 M^−1 cm^−1, ampicillin=900 M^−1 cm^−1 and meropenem −10940 M^−1 cm^−1.

[2] = target: T2, F70C (NDM-1 mutant) (Klebsiella pneumoniae, UniProt C7C422, F70C); test: as above; assay type: biochemical; conditions: enzyme 0.001 mg/ml, 100 μM antibiotic, 50 μM ZnCl2, 20 mM Tris-HCl buffer, pH 7.0
T2 construct: made in house; host or cells: E. coli BL21 (DE3), pET-3k vector
Protocol: as §1

[3] = target: T3, Wild-type NDM-1 (Klebsiella pneumoniae, UniProt C7C422); test: as above; assay type: biochemical; conditions: enzyme 0.001 mg/ml, 100 μM antibiotic, 50 μM ZnCl2, 20 mM Tris-HCl buffer, pH 7.0
T3 construct: made in house; host or cells: E. coli BL21 (DE3), pET-3k vector
Protocol: as §1

[4] = target: T4, F70Cf (Klebsiella pneumoniae, UniProt C7C422, F70C); test: Fluorescence microplate reader measurements of F70Cf; assay type: binding; conditions: for Fluorescence signal of F70Cf as a function of time, microplate reader: mole ratio of F70Cf to test substance 1:1500, FIGS. 6A-6B, 8E; for Initial increase in fluorescence signal, microplate reader: mole ratio 1:1500, FIGS. 8A-8D
T4 construct: made in house; host or cells: E. coli BL21 (DE3), pET-3k vector; labelled with F5M after purification
Protocol: To investigate compatibility of F70Cf with a high-throughput screening platform, a F70Cf was initially added to a fluorescence microplate reader followed by injection of 1:1500 cefotaxime and cephalothin, respectively.
For high-throughput inhibitor screening experiments, the fluorescence signal changes were recorded by adding 10 μL of each inhibitor (final concentration: 200 μM) automatically into 250 μL of F70Cf (final concentration: 0.13 μM) in a 96-well plate containing 50 μM ZnCl2, 20 mM, pH7.0, Tris-HCl buffer, using Thermo Scientific Varioskan LUX Multimode Microplate Reader (Thermo Fisher Scientific) (n=3). The excitation and emission wavelengths were 494 and 520 nm, respectively. The injection of each inhibitor started at 0.5 min.

[5] = target: T4, F70Cf; test: Time-course fluorescence measurements of F70Cf on a spectrofluorometer; assay type: binding; conditions: for Fluorescence signal of F70Cf with β-lactam antibiotic as a function of time: spectrofluorometer, mole ratios 1:150 and 1:1500, FIGS. 5A-5B; for Fluorescence signal of F70Cf with inhibitor: F70Cf 0.13 μM, inhibitor 0, 2, 20 and 200 μM, excitation 494 nm, emission 518 nm, L-arginine 200 μM (1:1500) as control, FIGS. 7A-7E; for Initial phase of fluorescence increase (speed of binding to F70Cf): spectrophotometer, FIGS. 7A-7D
Description: To investigate fluorescence response of the proposed NDM-1 mutant to two existing β-lactam antibiotics, fluorescein-labelled NDM-1 mutant, F70Cf, was mixed with cefotaxime and cephalothin in two concentrations (in mole ratios of 1:150 and 1:1500) and compared the fluorescence intensity level of these two samples with a blank (i.e., no cefotaxime nor cephalothin, or mole ratio=1:0) under a spectrofluorometer. […] It has been shown in other previous studies (Chan et al., 2008; Tsang et al., 2011) that binding of β-lactam antibiotics to the enzyme's active site induces the […] to depart from the active site, so that the fluorescein label (F5M) becomes well exposed to external aqueous environment and/or stays away from amino acid quenchers in the active site. When the […] is hydrolyzed to the acid product, the fluorescein label (F5M) returns to the active site, thus restoring its weak fluorescence signal.
Time-course fluorescence measurements were recorded at 518 nm by exciting the F70Cf (final concentration: 0.13 μM) at 494 nm with different concentrations of the inhibitors (0, 2, 20 and 200 μM, respectively) in labelling buffer (50 μM ZnCl2, 20 mM Tris-HCl buffer, pH 7.0) in a quartz cuvette. Triplicate measurements were performed for each inhibitor. L-arginine in 200 μM was also used as a control.

[6] = target: NDM-1 (Klebsiella pneumoniae, UniProt C7C422); conditions: previous studies (Brem et al., 2016; Klingler et al., 2015; Ma et al., 2019); cited from earlier work
[7] = target: T4, F70Cf; test: Native ESI-MS binding study of F70Cf with inhibitors; conditions: 20 mM ammonium acetate with 50 μM ZnCl2, FIGS. 9A-9F
Protocol: To further verify that F70Cf can bind to these non-β-lactam inhibitors non-covalently, native ESI-MS measurements were performed. […] Prior to ESI-MS analysis, protein was buffer-exchanged into 20 mM ammonium acetate with 50 μM ZnCl2 buffer with ultra-filtration devices. Equal volumes of F70Cf and inhibitors were mixed in a molar ratio of 1:20 for 10 minutes, and the mixture was directly loaded into metal-coated glass capillaries, which were subsequently mounted onto the nano-ESI source for MS analysis […].

T3 sequence (C7C422 29-270 limits assumed): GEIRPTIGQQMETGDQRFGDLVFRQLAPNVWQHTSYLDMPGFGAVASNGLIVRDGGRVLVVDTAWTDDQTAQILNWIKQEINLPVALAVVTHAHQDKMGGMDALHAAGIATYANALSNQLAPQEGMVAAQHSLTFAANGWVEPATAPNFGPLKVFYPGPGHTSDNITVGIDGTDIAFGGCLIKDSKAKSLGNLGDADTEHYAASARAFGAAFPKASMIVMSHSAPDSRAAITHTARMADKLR
T1 sequence (C7C422 29-270 F70C): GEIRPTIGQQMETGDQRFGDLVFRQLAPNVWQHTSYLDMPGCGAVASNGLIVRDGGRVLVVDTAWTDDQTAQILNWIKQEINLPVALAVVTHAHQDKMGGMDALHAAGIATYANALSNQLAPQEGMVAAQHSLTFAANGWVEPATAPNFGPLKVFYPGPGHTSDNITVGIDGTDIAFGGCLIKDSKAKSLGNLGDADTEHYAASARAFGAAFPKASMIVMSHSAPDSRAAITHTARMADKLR
T2 sequence (C7C422 29-270 F70C): as above
T4 sequence (C7C422 29-270 F70C): as above

Compound | Specific activity, F70Cf [1] | Specific activity, F70C [2] | Specific activity, Wild-type NDM-1 [3] | Fluorescence signal of F70Cf as a function of time, microplate reader [4] | Fluorescence signal of F70Cf with β-lactam antibiotic as a function of time [5] | IC50 [6] | Initial increase in fluorescence signal, microplate reader [4] | Formation of non-covalent complex with F70Cf [7] | Fluorescence signal of F70Cf with inhibitor [5] | Initial phase of fluorescence increase (speed of binding to F70Cf) [5]
CC1(C)S[C@@H]2[C@H](NC(=O)[C@H](N)c3ccccc3)C(=O)N2[C@H]1C(=O)O [Ampicillin, ampicillin] | 779 ± 114 U/mg | 13880 ± 1406 U/mg | 16349 ± 880 U/mg | – | – | – | – | – | – | –
CO/N=C(\C(=O)N[C@@H]1C(=O)N2C(C(=O)O)=C(COC(C)=O)CS[C@H]12)c1csc(N)n1 [Cefotaxime, cefotaxime] | 1529 ± 121 U/mg | 8195 ± 1960 U/mg | 8166 ± 937 U/mg | stronger fluorescence signals and then declining fluorescence signals as a function of time | fluorescence signals increased and then decreased gradually as a function of time | – | – | – | – | –
CC(C)(O/N=C(\C(=O)N[C@@H]1C(=O)N2C(C(=O)[O-])=C(C[n+]3ccccc3)CS[C@H]12)c1csc(N)n1)C(=O)O [Ceftazidime, ceftazidime] | 308 ± 33 U/mg | 3835 ± 216 U/mg | 3446 ± 150 U/mg | – | – | – | – | – | – | –
CC(=O)OCC1=C(C(=O)O)N2C(=O)[C@@H](NC(=O)Cc3cccs3)[C@H]2SC1 [cephalothin] | – | – | – | stronger fluorescence signals and then declining fluorescence signals as a function of time | fluorescence signals increased and then decreased gradually as a function of time | – | – | – | – | –
O=C(O)CNC(=O)C(CS)Cc1ccccc1 (racemic) [DL-thiorphan] | – | – | – | – | – | 1800 nM | much faster than that of L-captopril | can form non-covalent complexes with F70Cf in a significant population | increased with an increasing dose of the inhibitors | bind much faster to F70Cf as compared L-captopril
CC1(C)S[C@@H]2[C@H](NC(=O)Cc3ccccc3)C(=O)N2[C@H]1C(=O)O [Penicillin G, penicillin G] | 10720 ± 330 U/mg | 60854 ± 1436 U/mg | 54764 ± 3013 U/mg | – | – | – | – | – | – | –
peptide with an amino acid sequence of GSKKPVPIIYCNRRTGKCQRM (SEQ ID NO: 9), from GL Biochem [thanatin] | – | – | – | – | – | 3210 nM | much faster than that of L-captopril | can form non-covalent complexes with F70Cf in a significant population | increased with an increasing dose of the inhibitors | bind much faster to F70Cf as compared L-captopril
N=C(N)NCCC[C@H](N)C(=O)O [L-arginine] | – | – | – | no fluorescence signals | – | – | – | virtually cannot form a F70Cf-L-arginine complex in a significant population | no fluorescence signal | –
C[C@@H](O)[C@H]1C(=O)N2C(C(=O)O)=C(S[C@@H]3CN[C@H](C(=O)N(C)C)C3)[C@H](C)[C@H]12 [Meropenem, meropenem] | 506 ± 30 U/mg | 5863 ± 291 U/mg | 6834 ± 1582 U/mg | – | – | – | – | – | – | –
